# What was measured:
# rice = assay: Oxidation stress resistance against methyl viologen in rice (leaf chlorosis, chlorophyll content), Example 9; type: in vivo, rice (variety: Nipponbare); conditions: 0.5 mM, 2.5 μM methyl viologen, 30° C. 3 days
# Procedure: A rice strain (the variety: Nipponbare) was used as an experimental material. Rice seeds were purchased from Nouken.
# A Murashige and Skoog Plant Salt Mixture (2.2 g) was dissolved in 1 l of pure water, a pH was adjusted to 5.8, and the resultant was autoclaved (121° C., 20 minutes).
# Seeds were sterilized by incubation with the use of a Kitchen Haiter® diluted to 2-fold with pure water for 20 minutes. The sterilized seeds were washed 3 times with sterile water, 30 grains of seeds were soaked in a 50-ml conical tube (Falcon) containing 10 ml of sterile water, and the seeds were cultured in an incubator maintained at 30° C. (16 hours light and 8 hours darkness) for 3 days to germinate the seeds.
# After the seeds were incubated for 3 days, the growth medium was dispensed at 3 ml/well to the sterilized 12-well microplate (IWAKI), and the germinated seeds were seeded at 3 grains/well. To each well, 0.5 mM N-acetylglutamic acid or an equivalent amount of sterile water was added, and the seeds were incubated at 30° C. for 1 day. […]
# Leaf chlorosis is observed in plants upon oxidation stress exposure. Thus, an extent of chlorosis was evaluated by measuring the content of the green pigment chlorophyll in leaves. […] The chlorophyll content was calculated in the same manner as in Example 1.
# ZAT12 = assay: Histone H4 acetylation level of ZAT12 by chromatin immunoprecipitation and quantitative PCR, Example 14; type: in vivo, Arabidopsis thaliana (Col-0); conditions: Arabidopsis thaliana; 0.4 mM in medium, 2 hours after application; read-out: histone H4 acetylation level of ZAT12, increase vs group not subjected to the treatment
# Procedure: (§1) A wild-type Arabidopsis thaliana strain (accession: Col-0) was used as an experimental material. Seeds were purchased from Inplanta Innovations Inc.
# (§2) A liquid medium containing a ½ Murashige and Skoog Plant Salt Mixture (Nacalai) and 1 (w/v) % sucrose (FUJIFILM Wako) was used as a growth medium.
# (§3) Arabidopsis thaliana seeds were sterilized with the use of a Kitchen Haiter® liquid (Kao Corporation) diluted to one-half concentration with distilled water for 3 minutes, washed 3 times with sterile distilled water, and then incubated at 4° C. overnight. The growth medium (100 ml) was prepared in a 300-ml flask, the incubated seeds were seeded therein, the flask was transferred to an incubator (TOMY), and shake culture was then initiated. The incubator was maintained at a temperature of 22° C. for a daily cycle of 16 hours light and 8 hours darkness, and the rotation speed of the shaker was set at 180 rpm.
# (§4) A stock solution of N-acetylglutamic acid (Tokyo Chemical Industry Co., Ltd.) was added to Arabidopsis thaliana 7 days after seeding to the final concentration of 0 mM and 0.4 mM in the media, followed by incubation for 2 hours. Sample fixation following incubation was performed in accordance with Yamaguchi et al (Arabidopsis Book, Feb. 17, 2014; 12: e0170). […]
# HSFA2 = assay: Histone H4 acetylation level of HSFA2 by chromatin immunoprecipitation and quantitative PCR, Example 14; type: in vivo, Arabidopsis thaliana (Col-0); conditions: Arabidopsis thaliana; 0.4 mM in medium, 2 hours after application; read-out: histone H4 acetylation level of HSFA2, increase vs group not subjected to the treatment
# Procedure: as §1, §2, §3, §4
compound,measurement,setting,value
CC(=O)N[C@@H](CCC(=O)O)C(=O)O [N-acetylglutamic acid],leaf chlorosis in MV-treated group,rice,substantially no leaf chlorosis was observed
same,chlorophyll content of the MV-treated groups,"rice; second leaf, fresh weight basis",increased
same,fold induction at 400 µM,ZAT12,2.3
same,fold induction at 400 µM,HSFA2,2

# From patent US20260324636A1, “COMPOSITION FOR PROVIDING PLANT WITH STRESS RESISTANCE” (KIRIN HOLDINGS KABUSHIKI KAISHA, priority 2022, published 2026)
